In US5712298A, “Fluoroalkoxy-substituted benzamides and their use as cyclic nucleotide phosphodiesterase inhibitors” (BYK Gulden Lomberg Chemische Fabrik GmbH, priority 1993, dated 1998):

Assays:
PDE IV = assay: Inhibition of PDE IV activity; assay type: biochemical
conscious guinea-pigs = assay: Effect on dyspnoea and migration of proinflammatory cells into the airway lumen after allergic reaction of conscious guinea-pigs; assay type: in vivo, guinea-pig; settings: 30 μmol/kg p.o.
Source text: 2. Effect of dyspnoea and migration of proinflammatory (immunocompetent) cells from the blood vessels into the airway lumen after allergic reaction of conscious guinea-pigs
Immunocompetent blood cells (leucocytes) appear in the airway lumens under the influence of allergic, inflammatory reactions. This pathological migration can support itself, i.e. lead to chronic changes, and plays an important part as a pathological mechanism of chronic airway obstruction (of asthma) but also of allergic rhinitis and/or conjunctivitis. The inhibition of the migration by pharmaceuticals is an important therapeutic principle and is a measure of antiallergic or antiinflammatory actions.
The experimental animal methodology employed for the measurement of the acute effect of an allergic reaction on respiration and cell migration itself essentially follows the descriptions of P. A. Hutson et al. (Am. Rev. Respir. Dis., 137, 548, 1988) and J. P. Tarayre et al. (J. Parmacol. Meth., 23, 13, 1990) and also R. Beume et al. (Atemw. Lungenkrkh., 11, 324, 1985).
A defined guinea-pig collective is sensitized intraperitoneally to ovalbumin (20 μg+20 mg of Al(OH)3). 14 days later, the animals are tested:
0 h provocation of the allergic reaction, thoracographic latency time measurement until occurrence of dyspnoea, non-occurrence=protective action.
+24 h anaesthesia and bronchoalveolar lavage: Determination of the total cell number, counting of the differential cell picture in the lavage, determination of the protein content in the cell-free supernatant of the lavage.
The controlled used in each case was 1 random sample of sensitized animals: Placebo treatment+sham provocation or placebo treatment+provocation.
The compound of Example 1 (=compound 1), 30 μmol/kg p.o., acts on the parameters of this relation as follows: […]

[1] = bronchoalveolar lavage +24 h after provocation
[2] = cell-free supernatant of lavage +24 h after provocation

O=C(Nc1c(Cl)cncc1Cl)c1ccc(OC(F)F)c(OC(F)F)c1 [Compound 2, N-(3,5-Dichloropyrid-4-yl)-3,4-bis-difluoromethoxybenzamide]
-log IC50 (PDE IV): 8.42

COc1cc(C(=O)Nc2c(Cl)cncc2Cl)ccc1OC(F)F [Compound 1, N-(3,5-Dichloropyrid-4-yl)-4-difluoromethoxy-3-methoxybenzamide]
Passage of cells and protein after provocation (conscious guinea-pigs; base values = placebo + sham provocation): inhibits these passages to base values | Eosinophilic granulocytes, median (conscious guinea-pigs; [1]): 1.2 × 10^6 /10 ml | Eosinophilic granulocytes, median: bracketed value (relative to placebo + sham provocation = 1) (conscious guinea-pigs; [1]): 1.5 | Eosinophilic granulocytes, min./max. (conscious guinea-pigs; [1]): 0.6-2.5 × 10^6 /10 ml | Macrophages, median (conscious guinea-pigs; [1]): 1.2 × 10^6 /10 ml | Macrophages, median: bracketed value (relative to placebo + sham provocation = 1) (conscious guinea-pigs; [1]): 0.8 | Macrophages, min./max. (conscious guinea-pigs; [1]): 0.9-2.3 × 10^6 /10 ml | Neutrophilic granulocytes, median (conscious guinea-pigs; [1]): 0.0 × 10^6 /10 ml | Neutrophilic granulocytes, median: bracketed value (relative to placebo + sham provocation = 1) (conscious guinea-pigs; [1]): 0 | Neutrophilic granulocytes, min./max. (conscious guinea-pigs; [1]): 0.0-0.08 × 10^6 /10 ml | Total leucocytes, median (conscious guinea-pigs; [1]): 2.5 × 10^6 /10 ml | Total leucocytes, median: bracketed value (relative to placebo + sham provocation = 1) (conscious guinea-pigs; [1]): 1.1 | Total leucocytes, min./max. (conscious guinea-pigs; [1]): 1.5-4.2 × 10^6 /10 ml | Protein content, median (conscious guinea-pigs; [2]): 4.1 mg/10 ml | Protein content, median: bracketed value (relative to placebo + sham provocation = 1) (conscious guinea-pigs; [2]): 1.1 | Protein content, min./max. (conscious guinea-pigs; [2]): 2.6-11.0 mg/10 ml | N, of which protected (conscious guinea-pigs; ovalbumin provocation, N = 14, non-occurrence of dyspnoea = protective action): 8 animals | -log IC50 (PDE IV): 8.64

O=C(Nc1c(Cl)cncc1Cl)c1ccc(OC(F)F)c(OC2CCCC2)c1 [Compound 4, N-(3,5-Dichloropyrid-4-yl)-3-cyclopentyloxy-4-difluoromethoxybenzamide]
-log IC50 (PDE IV): 9.18

O=C(Nc1c(Cl)cncc1Cl)c1ccc(OC(F)F)c(OCC2CCC2)c1 [Compound 3, N-(3,5-Dichloropyrid-4-yl)-3-cyclobutylmethoxy-4-difluoromethoxybenzamide]
-log IC50 (PDE IV): 8.74
